Measured values reported in ChEMBL document CHEMBL5674872, “JMJD3 aids in reprogramming of bone marrow progenitor cells to hepatic phenotype through epigenetic activation of hepatic transcription factors” (PLoS One, 2017).
Active and inactive are the calls of the source.

Columns and labels:
Details in all cases: time 14.0 day
[1] = molecular target: Lysine-specific demethylase 6B (Mus musculus) (UniProt Q5NCY0); experiment: Inhibition of JMJD3 expression in Bl6/J female eGFP-expressing mouse Lin-BM cells assessed as H3K27me3 enrichments level at promoters of HNF3-alpha at 100 nM incubated for 14 days by ChIP-qPCR method; assay type: cell-based
Sequence of Lysine-specific demethylase 6B (Mus musculus) (Q5NCY0 whole entry): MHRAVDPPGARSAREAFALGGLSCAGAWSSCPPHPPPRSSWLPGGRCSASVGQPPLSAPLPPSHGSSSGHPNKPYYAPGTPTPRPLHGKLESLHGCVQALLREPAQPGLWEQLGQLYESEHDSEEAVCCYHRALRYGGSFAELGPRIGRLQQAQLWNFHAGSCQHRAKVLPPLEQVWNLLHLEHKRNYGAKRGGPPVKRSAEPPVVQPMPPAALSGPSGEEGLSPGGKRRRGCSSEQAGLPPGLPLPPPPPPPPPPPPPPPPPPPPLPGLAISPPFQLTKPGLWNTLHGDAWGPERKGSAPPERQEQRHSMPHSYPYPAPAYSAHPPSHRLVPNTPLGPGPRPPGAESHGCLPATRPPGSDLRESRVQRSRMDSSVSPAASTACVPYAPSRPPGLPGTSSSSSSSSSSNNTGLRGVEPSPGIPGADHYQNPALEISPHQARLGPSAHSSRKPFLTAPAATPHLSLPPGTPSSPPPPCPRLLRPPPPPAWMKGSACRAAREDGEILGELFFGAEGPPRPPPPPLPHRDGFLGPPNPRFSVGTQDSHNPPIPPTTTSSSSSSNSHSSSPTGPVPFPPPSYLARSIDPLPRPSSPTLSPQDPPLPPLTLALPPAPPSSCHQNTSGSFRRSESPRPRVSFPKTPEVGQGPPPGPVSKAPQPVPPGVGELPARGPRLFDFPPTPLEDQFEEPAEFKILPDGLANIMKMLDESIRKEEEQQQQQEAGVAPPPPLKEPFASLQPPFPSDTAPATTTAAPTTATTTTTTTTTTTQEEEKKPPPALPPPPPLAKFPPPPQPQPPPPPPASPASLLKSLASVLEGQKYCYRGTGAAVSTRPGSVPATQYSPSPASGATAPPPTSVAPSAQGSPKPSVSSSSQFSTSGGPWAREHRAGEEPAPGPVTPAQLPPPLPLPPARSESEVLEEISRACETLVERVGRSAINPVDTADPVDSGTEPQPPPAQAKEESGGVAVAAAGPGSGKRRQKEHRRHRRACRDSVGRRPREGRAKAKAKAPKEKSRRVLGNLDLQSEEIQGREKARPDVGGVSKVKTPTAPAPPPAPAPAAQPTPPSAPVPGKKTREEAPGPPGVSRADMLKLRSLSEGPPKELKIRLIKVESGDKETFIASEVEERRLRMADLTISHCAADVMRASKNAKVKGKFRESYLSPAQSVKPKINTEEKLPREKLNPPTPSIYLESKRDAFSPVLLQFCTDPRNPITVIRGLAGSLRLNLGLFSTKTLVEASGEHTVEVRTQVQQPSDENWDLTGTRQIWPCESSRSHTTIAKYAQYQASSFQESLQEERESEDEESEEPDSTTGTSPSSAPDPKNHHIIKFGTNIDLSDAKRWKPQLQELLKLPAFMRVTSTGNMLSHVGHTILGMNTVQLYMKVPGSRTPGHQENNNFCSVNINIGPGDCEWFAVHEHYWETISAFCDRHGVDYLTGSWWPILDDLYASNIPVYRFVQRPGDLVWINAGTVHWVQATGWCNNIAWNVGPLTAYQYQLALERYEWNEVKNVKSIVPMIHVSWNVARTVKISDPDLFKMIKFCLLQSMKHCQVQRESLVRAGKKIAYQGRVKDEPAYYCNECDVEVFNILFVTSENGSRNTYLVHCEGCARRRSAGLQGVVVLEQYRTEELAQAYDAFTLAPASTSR

[2] = molecular target: Lysine-specific demethylase 6B (Mus musculus) (UniProt Q5NCY0); experiment: Inhibition of JMJD3 expression in Bl6/J female eGFP-expressing mouse Lin-BM cells assessed as H3K27me3 enrichments level at promoters of CEBP-alpha at 100 nM incubated for 14 days by ChIP-qPCR method; assay type: cell-based
[3] = molecular target: Lysine-specific demethylase 6B (Mus musculus) (UniProt Q5NCY0); experiment: Inhibition of JMJD3 expression in Bl6/J female eGFP-expressing mouse Lin-BM cells assessed as H3K27me3 enrichments level at promoters of HNF4-alpha at 100 nM incubated for 14 days by ChIP-qPCR method; assay type: cell-based
[4] = molecular target: Lysine-specific demethylase 6B (Mus musculus) (UniProt Q5NCY0); experiment: Inhibition of JMJD3 expression in Bl6/J female eGFP-expressing mouse Lin-BM cells assessed as H3K27me3 enrichments level at promoters of GATA4 at 100 nM incubated for 14 days by ChIP-qPCR method; assay type: cell-based
[5] = molecular target: Lysine-specific demethylase 6B (Mus musculus) (UniProt Q5NCY0); experiment: Inhibition of JMJD3 expression in Bl6/J female eGFP-expressing mouse Lin-BM cells assessed as H3K27me3 enrichments level at promoters of HNF3-beta at 100 nM incubated for 14 days by ChIP-qPCR method; assay type: cell-based
[6] = molecular target: Lysine-specific demethylase 6B (Mus musculus) (UniProt Q5NCY0); experiment: Inhibition of JMJD3 expression in Bl6/J female eGFP-expressing mouse Lin-BM cells assessed as reduction in hepatic differentiation at 100 nM incubated for 14 days by immuno-cytochemistry analysis; assay type: cell-based
[7] = molecular target: Lysine-specific demethylase 6B (Mus musculus) (UniProt Q5NCY0); experiment: Inhibition of JMJD3 expression in Bl6/J female eGFP-expressing mouse Lin-BM cells assessed as H3K27me3 enrichments level at promoters of HNF1-alpha at 100 nM incubated for 14 days by ChIP-qPCR method; assay type: cell-based
[8] = molecular target: Lysine-specific demethylase 6B (Mus musculus) (UniProt Q5NCY0); experiment: Inhibition of JMJD3 expression in Bl6/J female eGFP-expressing mouse Lin-BM cells assessed as prevention of loss of H3K27me3 chromatin mark at 100 nM incubated for 14 days by immuno-cytochemical analysis; assay type: cell-based
Lin-BM = experiment: Inhibition of JMJD3 expression in Bl6/J female eGFP-expressing mouse Lin-BM cells at 100 nM incubated for 14 days by immuno-cytochemistry analysis; assay type: functional, cell-based

Measured: inhibition

CCOC(=O)CCNc1cc(N2CCc3ccccc3CC2)nc(-c2ccccn2)n1
active: all assays above
